Data taken from US11857550B2, “Benzathine analogs” (University of Pittsburgh—Of the Commonwealth System of …, priority 2012, dated 2024).

Tested on: C57BL6 mice
Test: Carrageenan induced paw edema
Format: in vivo
Conditions: 200 ug IP daily, 48 h
Protocol: FIGS. 16A-16C. BC-1215 reduces Carrageenan induced paw edema. FIGS. 16A-16C. C57BL6 mice were deeply anesthetized with ketamine (80-100 mg/kg i.p.) and xylazine (10 mg/kg i.p.). Mice were received a subplantar administration of 25 ul of saline or 25 ul of carrageenan (1% in saline), followed by an IP injection of […] of BC-1215 daily for two days. Mice were then euthanized; the thickness and volume of paw was measured (FIG. 16B-16C). (n=4 mice/group, *p<0.05 versus vehicle)
BC-1215 ameliorates Carrageenan induced paw edema. BC-1215 also was tested in a mouse paw edema model to confirm its anti-inflammatory activity. Mice received subplantar administration of 25 ul of saline or 25 ul of carrageenan (1% in saline) (Posadas et al., Br J Pharmacol, 2004. 142(2):p. 331-8), followed by an IP injection of 200 ug of BC-1215 daily. 48 h later, mice were euthanized; the thickness and volume of the paw was measured. […] Thus, the FBXO3 inhibitor BC-1215 suppresses inflammation in a nonpulmonary model of edema involving the extremities.

Structure (SMILES): c1ccc(-c2ccc(CNCCNCc3ccc(-c4ccccn4)cc3)cc2)nc1 [BC-1215]
- paw edema: significantly reduced
- paw thickness: significantly reduced
